{"source": "PubChem BioAssay AID2252", "about": "(Southern Research Specialized Biocontainment Screening …, 2010)", "test_system": "THP-1 viability, CellTiter-Glo luminescence, 72 h", "assay": "PubChem AID 2252"}
{"smiles": "Cc1ccc2c(c1)sc(-c1ccc(N(C)C)cc1)[n+]2C", "values": [{"measurement": "EC50", "value": 4.02, "unit": "µM"}]}
{"smiles": "O=C(COc1ccc(Br)cc1CNCCc1ccccc1)NCc1ccccc1", "values": [{"measurement": "EC50", "value": 10.4, "unit": "µM"}]}
{"smiles": "CN(CC(=O)Nc1ccc(F)c(F)c1F)c1cnccn1", "values": [{"measurement": "EC50", "value": 19.6, "unit": "µM"}]}
{"smiles": "O=C(Nc1nnc(C(F)(F)F)s1)c1ccc(Br)s1", "values": [{"measurement": "EC50", "value": 22.2, "unit": "µM"}]}
{"smiles": "O=C(NC(=C(Cl)Cl)S(=O)(=O)c1ccc(Cl)cc1)c1ccccc1", "values": [{"measurement": "EC50", "value": 23.2, "unit": "µM"}]}
{"smiles": "CC[n+]1c(/C=C/N(C)c2ccccc2)n(-c2ccccc2)c2ccc(-c3nc4ccccc4s3)cc21", "values": [{"measurement": "EC50", "value": 0.44, "unit": "µM"}]}
{"smiles": "c1ccc2c(c1)CSc1sccc1C2=C1CCNCC1", "values": [{"measurement": "EC50", "value": 17.7, "unit": "µM"}]}
{"smiles": "CC1=C([N+](=O)[O-])C(c2ccccc2)C2=C(N1)c1ccccc1C2=O", "note": "(centres undefined)", "values": [{"measurement": "EC50", "value": 1.01, "unit": "µM"}]}
{"smiles": "CCN(CC)c1cc(C)c2cc(NC(=O)c3ccccc3F)ccc2n1", "values": [{"measurement": "EC50", "value": 8.98, "unit": "µM"}]}
{"smiles": "CCc1nc(SCC(=O)Nc2ccc(N(C)C)cc2)c2ccccc2n1", "values": [{"measurement": "EC50", "value": 35.3, "unit": "µM"}]}
{"smiles": "Oc1c(C(Nc2ccccn2)c2cccnc2)cc(Cl)c2cccnc12", "note": "(centres undefined)", "values": [{"measurement": "EC50", "value": 6.1, "unit": "µM"}]}
{"smiles": "O=C(CSc1cccc2cccnc12)Nc1ccc(S(=O)(=O)N2CCOCC2)cc1", "values": [{"measurement": "EC50", "value": 24.3, "unit": "µM"}]}
{"smiles": "CCCCCCCSc1cc(OC)c(CCN(C)C)cc1OC", "values": [{"measurement": "EC50", "value": 9.51, "unit": "µM"}]}
{"smiles": "CN(C)c1ccc(Nc2nc(N)c3ccccc3n2)cc1", "values": [{"measurement": "EC50", "value": 6, "unit": "µM"}]}
{"smiles": "c1ccc(CN2CCC(Nc3nc(-c4ccccc4)nc4ccccc34)CC2)cc1", "values": [{"measurement": "EC50", "value": 17.6, "unit": "µM"}]}
{"smiles": "COc1ccc2c(C(=O)CCl)c[nH]c2c1", "values": [{"measurement": "EC50", "value": 11.2, "unit": "µM"}]}
{"smiles": "Cc1ccccc1C(=O)N/N=C/c1ccc([N+](=O)[O-])s1", "values": [{"measurement": "EC50", "value": 16.8, "unit": "µM"}]}
{"smiles": "CC(C)N1CCc2c(sc(NC(=O)c3ccc(S(=O)(=O)N4CCc5ccccc54)cc3)c2C(N)=O)C1", "values": [{"measurement": "EC50", "value": 8.45, "unit": "µM"}]}
{"smiles": "CN(C)CCCNC(=O)c1ccc(-c2nc(-c3ccc(Cl)cc3)cs2)cc1", "values": [{"measurement": "EC50", "value": 3.96, "unit": "µM"}]}
{"smiles": "Fc1ccc(NC(=S)Nc2cc(-c3ccccc3)[nH]n2)cc1Cl", "values": [{"measurement": "EC50", "value": 41.9, "unit": "µM"}]}
{"smiles": "CC[C@@H](C)[C@H](CNC)NC[C@@H](Cc1cccc2ccccc12)NCCc1cccc(C(F)(F)F)c1", "values": [{"measurement": "EC50", "value": 5.86, "unit": "µM"}]}
{"smiles": "Cc1cccc(NC2=NC3(CCCCC3)N=C(N)N2)c1", "values": [{"measurement": "EC50", "value": 34.2, "unit": "µM"}]}
{"smiles": "Cc1cc(C)c2sc(N(CCCN(C)C)C(=O)COc3ccc(Cl)cc3)nc2c1", "values": [{"measurement": "EC50", "value": 17.7, "unit": "µM"}]}
{"smiles": "O=C(N/N=C/c1ccccc1O)C1SCCCS1", "values": [{"measurement": "EC50", "value": 26.1, "unit": "µM"}]}
{"smiles": "COC(=O)C(C)NC(=S)N1CCN(c2c(F)cc3c(=O)c(C(=O)O)cn(C4CC4)c3c2OC)CC1C", "note": "(centres undefined)", "values": [{"measurement": "EC50", "value": 36.9, "unit": "µM"}]}
{"smiles": "Brc1ccc2c(c1)CN1CCCC1=N2", "values": [{"measurement": "EC50", "value": 28.6, "unit": "µM"}]}
{"smiles": "Nn1cnnc1N/N=C\\c1ccc(-c2ccccc2[N+](=O)[O-])o1", "values": [{"measurement": "EC50", "value": 41.3, "unit": "µM"}]}
{"smiles": "c1ccc(Nc2ccnc(Nc3ccccc3)n2)cc1", "values": [{"measurement": "EC50", "value": 41.7, "unit": "µM"}]}
{"smiles": "COc1ccc(OC)c(S(=O)(=O)N2CCC(C(=O)NCc3ccccc3OC)CC2)c1", "values": [{"measurement": "EC50", "value": "< 0.1", "unit": "µM"}]}
{"smiles": "N#C/C(=C\\c1ccc(O)c(O)c1)C(=O)NCc1ccccc1", "values": [{"measurement": "EC50", "value": 27.1, "unit": "µM"}]}
{"smiles": "O=c1[nH][nH]c(-c2ccccc2O)c1C(C[N+](=O)[O-])c1ccc(Br)cc1", "note": "(centres undefined)", "values": [{"measurement": "EC50", "value": 21.1, "unit": "µM"}]}
{"smiles": "C[C@@H](NC(=O)/C(C#N)=C/c1ccc(O)c(O)c1)c1ccccc1", "values": [{"measurement": "EC50", "value": 15.2, "unit": "µM"}]}
{"smiles": "Cc1cc([N+](=O)[O-])cc(/C=N/n2c(C)nc3ccccc3c2=O)c1O", "values": [{"measurement": "EC50", "value": 28.2, "unit": "µM"}]}
{"smiles": "O=C(CN1CC(c2ccccc2)CC1=O)N/N=C/c1cc(Br)ccc1O", "note": "(centres undefined)", "values": [{"measurement": "EC50", "value": 3.85, "unit": "µM"}]}
{"smiles": "c1ccc2cc3c(NCCN4CCOCC4)ccnc3cc2c1", "values": [{"measurement": "EC50", "value": 3.7, "unit": "µM"}]}
{"smiles": "Cc1nc2c(=O)n(C)c(=O)nc-2n(C)n1", "values": [{"measurement": "EC50", "value": 2.17, "unit": "µM"}]}
{"smiles": "CC1CCCC(NC(=O)COC(=O)Cc2c[nH]c3ccccc23)C1C", "note": "(centres undefined)", "values": [{"measurement": "EC50", "value": "< 0.1", "unit": "µM"}]}
{"smiles": "Nc1nc(Nc2ccc(Cl)cc2)nc2ccccc12", "values": [{"measurement": "EC50", "value": 6.06, "unit": "µM"}]}
{"smiles": "CN1CCN(CC(=O)N2CCn3c4c(c5cc(C6CCCCC6)ccc53)CCCC42)CC1", "note": "(centres undefined)", "values": [{"measurement": "EC50", "value": 6.66, "unit": "µM"}]}
{"smiles": "C/C(=N\\Nc1ccc2nncn2n1)c1ccccn1", "values": [{"measurement": "EC50", "value": 6.13, "unit": "µM"}]}
{"smiles": "O=C(CN1CC[n+]2c(-c3cccs3)csc21)c1ccc(-c2ccccc2)cc1", "values": [{"measurement": "EC50", "value": 13, "unit": "µM"}]}
{"smiles": "CCN1CCN(Cc2ccc(NC(=O)c3ccc(C)c(NC(=O)c4c[nH]c5cc(C(F)(F)F)ccc5c4=O)c3)cc2C(F)(F)F)CC1", "values": [{"measurement": "EC50", "value": 2.04, "unit": "µM"}]}
{"smiles": "C#CCOCCOCCOCCNc1nc(N2CCN(C(=O)CCCCCCCCCCNC(=O)Cn3cc(C[C@@H](C)O)nn3)CC2)nc(N2CCN(C(=O)CCCCCCCCCCNC(=O)[C@H](CCCN=C(N)N)n3cc(C[C@@H](C)CC)nn3)CC2)n1", "values": [{"measurement": "EC50", "value": 14.3, "unit": "µM"}]}
{"smiles": "CCCCCCCCNC(C)C(O)c1ccc(SC(C)C)cc1", "note": "(centres undefined)", "values": [{"measurement": "EC50", "value": 3.57, "unit": "µM"}]}
{"smiles": "Cc1[nH]nc2c1C(C1CC=CCC1)C(C#N)=C(N)O2", "note": "(centres undefined)", "values": [{"measurement": "EC50", "value": 13.9, "unit": "µM"}]}
{"smiles": "Cc1ccccc1Nc1cc(C)c2c(O)cccc2n1", "values": [{"measurement": "EC50", "value": 5.03, "unit": "µM"}]}
{"smiles": "COc1ccc(Nc2nc(-c3ccccc3)nc3ccccc23)cc1S(=O)(=O)N1CCOCC1", "values": [{"measurement": "EC50", "value": 39, "unit": "µM"}]}
{"smiles": "CNCCCCOc1ccc(C(C)(C)C)cc1Cl", "values": [{"measurement": "EC50", "value": 21.8, "unit": "µM"}]}
{"smiles": "CCCCOc1ccc(C(=O)OC2CC(C)N(C)CC2C)cc1", "note": "(centres undefined)", "values": [{"measurement": "EC50", "value": 30.7, "unit": "µM"}]}
{"smiles": "Fc1ccc(CCNCc2ccc(Cl)c(Cl)c2)cc1", "values": [{"measurement": "EC50", "value": 35.2, "unit": "µM"}]}
{"smiles": "CN1CCN(Cc2cc(COCc3ccccc3)c3cccnc3c2O)CC1", "values": [{"measurement": "EC50", "value": 2.82, "unit": "µM"}]}
{"smiles": "O=C(N/N=C/c1sc2ccccc2c1O)c1cccc2ccccc12", "values": [{"measurement": "EC50", "value": 2.58, "unit": "µM"}]}
{"smiles": "O=C(NC(=S)NNC(=O)c1cnccn1)c1ccc(F)cc1", "values": [{"measurement": "EC50", "value": 5.51, "unit": "µM"}]}
{"smiles": "Nc1c2ccccc2nc2ccccc12", "values": [{"measurement": "EC50", "value": 4.83, "unit": "µM"}]}
{"smiles": "CCc1ccc(CNCc2ccc(OCC(O)CN(C)Cc3ccccc3)cc2)nc1", "note": "(centres undefined)", "values": [{"measurement": "EC50", "value": 23, "unit": "µM"}]}
{"smiles": "CCCCCCCCCCOC(=O)Cn1c(COc2cccc(C)c2)[n+](C)c2ccccc21", "values": [{"measurement": "EC50", "value": 2.43, "unit": "µM"}]}
{"smiles": "OC(CNCc1ccco1)Cn1c2ccc(Br)cc2c2cc(Br)ccc21", "note": "(centres undefined)", "values": [{"measurement": "EC50", "value": 9.67, "unit": "µM"}]}
{"smiles": "O=C(Nc1c2ccccc2nc2ccccc12)C(Cl)(Cl)Cl", "values": [{"measurement": "EC50", "value": 20, "unit": "µM"}]}
{"smiles": "CCN1CCN(CCNC(=O)c2ccc3c(c2)N(Cc2ccc(F)cc2)C(=O)/C(=C/c2ccccc2)S3)CC1", "values": [{"measurement": "EC50", "value": 9.43, "unit": "µM"}]}
{"smiles": "Nc1nonc1C(=O)N/N=C/c1cc(Br)ccc1O", "values": [{"measurement": "EC50", "value": 4.18, "unit": "µM"}]}
{"smiles": "Cc1ccc(C(=O)NNC(=S)NC(=O)c2ccccc2)cc1", "values": [{"measurement": "EC50", "value": 8.09, "unit": "µM"}]}
{"smiles": "CCCCn1c(NCc2ccccc2NS(=O)(=O)c2ccc(C)cc2)nc2ccccc21", "values": [{"measurement": "EC50", "value": 24.3, "unit": "µM"}]}
{"smiles": "O=C(C[n+]1cccc(CNC(=O)c2ccc(OC(F)F)cc2)c1)Nc1ccc(SC(F)F)cc1", "values": [{"measurement": "EC50", "value": 7.22, "unit": "µM"}]}
{"smiles": "COc1cccc(/C=C/C(=O)c2cccc([N+](=O)[O-])c2)c1OC", "values": [{"measurement": "EC50", "value": 22.3, "unit": "µM"}]}
{"smiles": "COc1ccc(/C=C/C(=O)NC(=S)NNC(=O)c2cnccn2)cc1", "values": [{"measurement": "EC50", "value": 2.81, "unit": "µM"}]}
{"smiles": "Cc1[nH]c2ccccc2c1/C=C/c1nc2ccccc2c(=O)[nH]1", "values": [{"measurement": "EC50", "value": 14, "unit": "µM"}]}
{"smiles": "Cc1cccc(/C(N)=N/OC(=O)N2CCOCC2)c1", "values": [{"measurement": "EC50", "value": 8.03, "unit": "µM"}]}
{"smiles": "Cc1ccc(C(C[N+](=O)[O-])Sc2ccc(N)cc2)cc1", "note": "(centres undefined)", "values": [{"measurement": "EC50", "value": 21.8, "unit": "µM"}]}
{"smiles": "CSc1nnc(-c2cccc(NC(=S)NN)c2)o1", "values": [{"measurement": "EC50", "value": "< 0.1", "unit": "µM"}]}
